Measured values: patent publication US20230094952A1, “Method for Culturing Hematopoietic Stem Cells” (Sumitomo Pharma Co., Ltd., priority 2019, published 2023)

Columns and labels:
[1] = system: mouse long-term hematopoietic stem cells; test: Reproducibility and concentration dependence test: 1-week culture of sorted Hoxb5-tri-mCherry mouse long-term hematopoietic stem cells, flow cytometry; format: cell-based; settings: day 7 of culture, n=2
How it was run: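 Hoxb5-tri-mCherry+ LT-HSCs (Lin−c-Kit+Sca-1+Flk2−CD34−/lo CD150+) were sorted from mouse bone marrow at 10 cells/well into StemSpan SFEM with SCF and TPO. Cells were cultured with compound for 1 week at 37°C, 5% CO2. Flow cytometry then measured KLS and mCherry+ fractions and cell counts.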

[2] = system: human CD34-positive fraction; test: Ex vivo culture of 10000 human CD34-positive cells before transplantation (cell count); format: cell-based; settings: 10000 CD34-positive cells cultured 1 week
Procedure: (§1) Each of artemether and the compound of Example 1-23 was prepared with the cell culture medium at a final concentration of 0.003 μM or 0.01 μM, and added to the above human cells seeded after classification (166 cells were seeded per well) to a final volume of 200 μL/well to act thereon. Thereafter, for each condition, 10000 cells in total of a CD34-positive fraction were cultured in a CO2 incubator under conditions of 37° C. and 5% CO2 for 1 week, and the cell count was determined. Among the cells after culture, 10000 cells, a number equal to the number of cells before culture, were transplanted into an immunocompromised NOG mouse exposed to a lethal dose of radiation. As a comparative sample, 10000 fresh cord blood-derived CD34-positive cells (uncultured) were transplanted. For peripheral blood donor chimerism at each specified time after transplantation, the human CD45-positive cell count and the mouse CD45-positive cell count were determined by using a human-specific CD45 antibody and a mouse-specific CD45 antibody, and the peripheral blood donor chimerism was represented as the proportion of human CD45-positive cells to the total of human CD45-positive cells and mouse CD45-positive cells (chimerism rate).

[3] = system: human CD34-positive cells transplanted into NOG mouse; test: In vivo engraftment test with human cells in irradiated NOG mouse (peripheral blood donor chimerism); settings: 10000 cells transplanted
Procedure: as §1

Compound | KLS-positive rate ([1]; Table 4, compound 0.1 μM) [%] | Viable cell count ([1]; Table 4, compound 0.1 μM) [cell] | mCherry-positive rate ([1]; Table 4, compound 0.1 μM) [%] | KLS-positive rate ([1]; Table 4, compound 0.3 μM) [%] | Viable cell count ([1]; Table 4, compound 0.3 μM) [cell] | mCherry-positive rate ([1]; Table 4, compound 0.3 μM) [%] | KLS-positive rate ([1]; Table 4, compound 1 μM) [%] | Viable cell count ([1]; Table 4, compound 1 μM) [cell] | mCherry-positive rate ([1]; Table 4, compound 1 μM) [%] | KLS-positive rate ([1]; Table 4, compound 3 μM) [%] | Viable cell count ([1]; Table 4, compound 3 μM) [cell] | mCherry-positive rate ([1]; Table 4, compound 3 μM) [%] | KLS-positive rate ([1]; Table 4, compound 10 μM) [%] | Viable cell count ([1]; Table 4, compound 10 μM) [cell] | mCherry-positive rate ([1]; Table 4, compound 10 μM) [%] | other results
C[C@H]1[C@H](C(N)=O)O[C@@H]2O[C@@]3(C)CC[C@H]4[C@H](C)CC[C@@H]1[C@@]24OO3 [Example 1-16, (3R,5aS,6R,8aS,9R,10R,12R,12aR)-3,6,9-Trimethyldecahydro-12H-3,12-epoxypyrano[4,3-j][1,2]benzodioxepine-10-carboxamide] | 13.3 | 504.5 | 6.8 | 11.6 | 388.5 | 29.2 | 33.4 | 310.0 | 68.2 | 9.2 | 182.5 | 92.4 | 52.6 | 29.0 | 99.0 | 
COCCO[C@H]1O[C@@H]2O[C@@]3(C)CC[C@H]4[C@H](C)CC[C@@H]([C@H]1C)[C@@]24OO3 [Example 1-23, (3R,5aS,6R,8aS,9R,10S,12R,12aR)-10-(2-methoxyethoxy)-3,6,9-trimethyldecahydro-12H-3,12-epoxypyrano[4,3-j][1,2]benzodioxepine] | 12.4 | 712.5 | 17.9 | 15.4 | 509.0 | 46.5 | 5.3 | 729.0 | 72.7 | 23.2 | 252.0 | 97.3 | 42.3 | 63.5 | 100.0 | Viable cell count ([2]; compound 0.01 μM): 20071 cell; Donor chimerism ([3]; cells cultured with compound 0.01 μM, 1 month after transplantation): 0.299 ± 0.049%; Donor chimerism ([3]; cells cultured with compound 0.01 μM, 2 months after transplantation): 0.748 ± 0.585%
C[C@H]1[C@H](c2ccco2)O[C@@H]2O[C@@]3(C)CC[C@H]4[C@H](C)CC[C@@H]1[C@@]24OO3 [Example 1-7, (3R,5aS,6R,8aS,9R,10R,12R,12aR)-10-(Furan-2-yl)-3,6,9-trimethyldecahydro-12H-3,12-epoxypyrano[4,3-j][1,2]benzodioxepine] | 26.9 | 225.0 | 42.9 | 19.6 | 269.0 | 62.2 | 36.1 | 73.0 | 96.7 | 0.0 | 0.0 | 0.0 | 0.0 | 0.0 | 0.0 | 
CO[C@H]1O[C@@H]2O[C@@]3(C)CC[C@H]4[C@H](C)CC[C@@H]([C@H]1C)[C@@]24OO3 [Example 1-30, artemether, reference compound] | 35.3 | 238.0 | 71.2 | 38.4 | 184.0 | 100.0 | 40.1 | 135.5 | 99.0 | 57.4 | 44.5 | 100.0 | 71.4 | 65.0 | 98.2 | Viable cell count ([2]; compound 0.003 μM): 95954 cell; Donor chimerism ([3]; cells cultured with compound 0.003 μM, 1 month after transplantation): 0.041 ± 0.022%; Donor chimerism ([3]; cells cultured with compound 0.003 μM, 2 months after transplantation): 0.605 ± 0.95%; Donor chimerism ([3]; cells cultured with compound 0.003 μM, 3 months after transplantation): 2.108 ± 2.479%; KLS-positive rate ([1]; Table 3, compound 0.1 μM): 50.25%; Viable cell count ([1]; Table 3, compound 0.1 μM): 1109 cell; mCherry-positive rate ([1]; Table 3, compound 0.1 μM): 67.2%; KLS-positive rate ([1]; Table 3, compound 0.3 μM): 22.05%; Viable cell count ([1]; Table 3, compound 0.3 μM): 2632 cell; mCherry-positive rate ([1]; Table 3, compound 0.3 μM): 36.85%; KLS-positive rate ([1]; Table 3, compound 1 μM): 21.4%; Viable cell count ([1]; Table 3, compound 1 μM): 1170.5 cell; mCherry-positive rate ([1]; Table 3, compound 1 μM): 57.85%; KLS-positive rate ([1]; Table 3, compound 3 μM): 50.3%; Viable cell count ([1]; Table 3, compound 3 μM): 115 cell; mCherry-positive rate ([1]; Table 3, compound 3 μM): 98.05%; KLS-positive rate ([1]; Table 3, compound 10 μM): 65.9%; Viable cell count ([1]; Table 3, compound 10 μM): 108.5 cell; mCherry-positive rate ([1]; Table 3, compound 10 μM): 94.45%
